The results in this text go back to patent US10280170B2, “Substituted 4,5,6,7-tetrahydro-pyrazolo[1,5-a]pyrazine derivatives and 5,6,7,8-tetrahydro-4H-pyrazolo[1,5-a][1,4]diazepine derivatives as Ros1 inhibitors” (Janssen Pharmaceutica NV, priority 2014, dated 2019).

Where two headings read alike, the source gives them in different places. Where only a bound is given, the exact number is not on record here.

Data set [1] deals with T1, Ba/F3 cells containing Ros1 wild-type protein (Homo sapiens, UniProt P08922, cells depend on it, form not given).
T1 construct: The background only speaks of 'a number of different unrelated proteins' and names SLC34A2-ROS1 for HCC78 cells
T1 sequence (P08922 whole entry, stated change not applied): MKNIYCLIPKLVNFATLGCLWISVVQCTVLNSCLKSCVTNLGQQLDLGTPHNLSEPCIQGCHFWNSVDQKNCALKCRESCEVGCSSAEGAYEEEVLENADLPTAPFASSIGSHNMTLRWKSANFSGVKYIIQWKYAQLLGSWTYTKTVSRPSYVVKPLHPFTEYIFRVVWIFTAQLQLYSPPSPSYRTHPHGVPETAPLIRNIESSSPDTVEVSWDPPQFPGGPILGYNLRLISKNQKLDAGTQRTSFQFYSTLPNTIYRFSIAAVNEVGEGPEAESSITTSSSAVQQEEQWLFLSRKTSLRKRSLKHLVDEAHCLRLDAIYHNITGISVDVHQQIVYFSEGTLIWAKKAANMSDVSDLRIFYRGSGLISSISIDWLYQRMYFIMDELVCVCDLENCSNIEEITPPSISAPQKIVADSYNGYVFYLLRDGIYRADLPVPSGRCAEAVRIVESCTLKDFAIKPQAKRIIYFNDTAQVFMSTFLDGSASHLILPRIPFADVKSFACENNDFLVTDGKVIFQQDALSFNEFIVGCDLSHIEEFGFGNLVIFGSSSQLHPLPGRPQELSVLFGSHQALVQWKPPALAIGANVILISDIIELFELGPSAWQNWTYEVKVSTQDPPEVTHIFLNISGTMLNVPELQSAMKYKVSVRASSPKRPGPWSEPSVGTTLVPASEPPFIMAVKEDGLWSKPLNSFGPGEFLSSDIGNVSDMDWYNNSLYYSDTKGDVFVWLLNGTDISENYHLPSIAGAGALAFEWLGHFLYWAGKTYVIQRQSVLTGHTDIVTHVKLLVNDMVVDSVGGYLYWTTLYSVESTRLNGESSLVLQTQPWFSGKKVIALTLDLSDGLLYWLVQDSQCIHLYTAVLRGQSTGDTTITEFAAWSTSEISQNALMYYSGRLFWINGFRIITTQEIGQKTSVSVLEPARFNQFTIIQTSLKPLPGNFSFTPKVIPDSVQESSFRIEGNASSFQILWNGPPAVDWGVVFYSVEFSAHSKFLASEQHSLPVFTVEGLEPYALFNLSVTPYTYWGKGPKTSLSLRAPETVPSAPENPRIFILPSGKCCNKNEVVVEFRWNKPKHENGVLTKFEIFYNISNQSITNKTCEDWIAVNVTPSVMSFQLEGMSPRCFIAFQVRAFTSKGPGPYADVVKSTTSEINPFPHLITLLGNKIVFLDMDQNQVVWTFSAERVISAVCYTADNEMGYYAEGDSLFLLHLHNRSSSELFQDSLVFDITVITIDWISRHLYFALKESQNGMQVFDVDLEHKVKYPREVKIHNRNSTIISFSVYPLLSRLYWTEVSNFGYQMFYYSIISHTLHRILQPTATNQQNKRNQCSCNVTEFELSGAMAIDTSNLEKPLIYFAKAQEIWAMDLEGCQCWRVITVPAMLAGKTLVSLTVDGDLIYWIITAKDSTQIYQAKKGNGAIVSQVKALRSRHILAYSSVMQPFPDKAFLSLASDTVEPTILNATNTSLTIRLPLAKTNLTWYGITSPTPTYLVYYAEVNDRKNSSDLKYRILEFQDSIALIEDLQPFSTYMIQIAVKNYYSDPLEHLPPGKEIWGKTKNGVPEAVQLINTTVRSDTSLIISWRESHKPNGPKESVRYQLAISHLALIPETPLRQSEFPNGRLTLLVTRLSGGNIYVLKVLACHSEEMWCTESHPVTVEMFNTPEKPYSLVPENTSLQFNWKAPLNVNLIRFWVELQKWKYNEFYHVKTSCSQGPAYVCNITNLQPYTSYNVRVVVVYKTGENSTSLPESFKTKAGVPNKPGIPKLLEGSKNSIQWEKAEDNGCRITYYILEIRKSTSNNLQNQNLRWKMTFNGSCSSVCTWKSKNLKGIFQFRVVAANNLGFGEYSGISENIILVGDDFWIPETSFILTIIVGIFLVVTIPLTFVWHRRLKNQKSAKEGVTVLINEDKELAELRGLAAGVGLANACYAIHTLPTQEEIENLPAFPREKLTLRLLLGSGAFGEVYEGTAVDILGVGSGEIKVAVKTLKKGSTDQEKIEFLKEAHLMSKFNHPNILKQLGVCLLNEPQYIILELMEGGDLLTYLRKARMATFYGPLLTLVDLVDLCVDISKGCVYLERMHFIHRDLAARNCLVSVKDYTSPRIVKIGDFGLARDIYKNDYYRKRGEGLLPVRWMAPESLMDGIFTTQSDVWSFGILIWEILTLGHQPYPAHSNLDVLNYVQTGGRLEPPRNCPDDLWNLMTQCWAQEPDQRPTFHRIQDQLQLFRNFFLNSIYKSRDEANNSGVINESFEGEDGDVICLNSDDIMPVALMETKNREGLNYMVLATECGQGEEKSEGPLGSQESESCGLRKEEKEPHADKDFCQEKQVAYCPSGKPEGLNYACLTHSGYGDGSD
As to the kind of experiment: Ba/F3-Ros1 cell proliferation assay, wild-type Ros1. The class given is cell-based, murine. Particulars: without IL-3. As for the experimental part: (§1) Ba/F3-Ros1 Cell Proliferation Assay
(§2) This assay was carried out with Ba/F3 cells containing three different versions of Ros1: the wild-type protein, protein with a mutation at the gatekeeper residue (L2026M), and protein with a mutation identified in a tumor from a patient that became resistant to crizotinib (Xalkori®) treatment (G2032R). Compounds were solubilized in 100% DMSO (dimethyl sulfoxide) and sprayed into polystyrene, tissue culture treated 384-well plates. A 50 μl volume of cell culture medium (phenol red free RPMI-1640, 10% FBS (fetal bovine serum), 2 mM L-Glutamine) containing 20000 Ba/F3-Ros1 cells was added to each well and the plates were placed in an incubator at 37° C. and 5% CO2. After 24 hours, 10 μl of Alamar Blue solution (0.5 mM K3Fe(CN)6, 0.5 mM K4Fe(CN)6, 0.15 mM Resazurin and 100 mM Phosphate Buffer) was added to the wells, incubated for 4 hours at 37° C. and 5% CO2 before RFU's (Relative Fluorescence Units) (ex. 540 nm., em. 590 nm.) were measured in a fluorescence plate reader.

The target in another data set is T2, Ros1 enzyme (Homo sapiens, UniProt P08922).
T2 construct: 0.5 μg/ml Ros1 enzyme
T2 sequence (P08922 28-2347): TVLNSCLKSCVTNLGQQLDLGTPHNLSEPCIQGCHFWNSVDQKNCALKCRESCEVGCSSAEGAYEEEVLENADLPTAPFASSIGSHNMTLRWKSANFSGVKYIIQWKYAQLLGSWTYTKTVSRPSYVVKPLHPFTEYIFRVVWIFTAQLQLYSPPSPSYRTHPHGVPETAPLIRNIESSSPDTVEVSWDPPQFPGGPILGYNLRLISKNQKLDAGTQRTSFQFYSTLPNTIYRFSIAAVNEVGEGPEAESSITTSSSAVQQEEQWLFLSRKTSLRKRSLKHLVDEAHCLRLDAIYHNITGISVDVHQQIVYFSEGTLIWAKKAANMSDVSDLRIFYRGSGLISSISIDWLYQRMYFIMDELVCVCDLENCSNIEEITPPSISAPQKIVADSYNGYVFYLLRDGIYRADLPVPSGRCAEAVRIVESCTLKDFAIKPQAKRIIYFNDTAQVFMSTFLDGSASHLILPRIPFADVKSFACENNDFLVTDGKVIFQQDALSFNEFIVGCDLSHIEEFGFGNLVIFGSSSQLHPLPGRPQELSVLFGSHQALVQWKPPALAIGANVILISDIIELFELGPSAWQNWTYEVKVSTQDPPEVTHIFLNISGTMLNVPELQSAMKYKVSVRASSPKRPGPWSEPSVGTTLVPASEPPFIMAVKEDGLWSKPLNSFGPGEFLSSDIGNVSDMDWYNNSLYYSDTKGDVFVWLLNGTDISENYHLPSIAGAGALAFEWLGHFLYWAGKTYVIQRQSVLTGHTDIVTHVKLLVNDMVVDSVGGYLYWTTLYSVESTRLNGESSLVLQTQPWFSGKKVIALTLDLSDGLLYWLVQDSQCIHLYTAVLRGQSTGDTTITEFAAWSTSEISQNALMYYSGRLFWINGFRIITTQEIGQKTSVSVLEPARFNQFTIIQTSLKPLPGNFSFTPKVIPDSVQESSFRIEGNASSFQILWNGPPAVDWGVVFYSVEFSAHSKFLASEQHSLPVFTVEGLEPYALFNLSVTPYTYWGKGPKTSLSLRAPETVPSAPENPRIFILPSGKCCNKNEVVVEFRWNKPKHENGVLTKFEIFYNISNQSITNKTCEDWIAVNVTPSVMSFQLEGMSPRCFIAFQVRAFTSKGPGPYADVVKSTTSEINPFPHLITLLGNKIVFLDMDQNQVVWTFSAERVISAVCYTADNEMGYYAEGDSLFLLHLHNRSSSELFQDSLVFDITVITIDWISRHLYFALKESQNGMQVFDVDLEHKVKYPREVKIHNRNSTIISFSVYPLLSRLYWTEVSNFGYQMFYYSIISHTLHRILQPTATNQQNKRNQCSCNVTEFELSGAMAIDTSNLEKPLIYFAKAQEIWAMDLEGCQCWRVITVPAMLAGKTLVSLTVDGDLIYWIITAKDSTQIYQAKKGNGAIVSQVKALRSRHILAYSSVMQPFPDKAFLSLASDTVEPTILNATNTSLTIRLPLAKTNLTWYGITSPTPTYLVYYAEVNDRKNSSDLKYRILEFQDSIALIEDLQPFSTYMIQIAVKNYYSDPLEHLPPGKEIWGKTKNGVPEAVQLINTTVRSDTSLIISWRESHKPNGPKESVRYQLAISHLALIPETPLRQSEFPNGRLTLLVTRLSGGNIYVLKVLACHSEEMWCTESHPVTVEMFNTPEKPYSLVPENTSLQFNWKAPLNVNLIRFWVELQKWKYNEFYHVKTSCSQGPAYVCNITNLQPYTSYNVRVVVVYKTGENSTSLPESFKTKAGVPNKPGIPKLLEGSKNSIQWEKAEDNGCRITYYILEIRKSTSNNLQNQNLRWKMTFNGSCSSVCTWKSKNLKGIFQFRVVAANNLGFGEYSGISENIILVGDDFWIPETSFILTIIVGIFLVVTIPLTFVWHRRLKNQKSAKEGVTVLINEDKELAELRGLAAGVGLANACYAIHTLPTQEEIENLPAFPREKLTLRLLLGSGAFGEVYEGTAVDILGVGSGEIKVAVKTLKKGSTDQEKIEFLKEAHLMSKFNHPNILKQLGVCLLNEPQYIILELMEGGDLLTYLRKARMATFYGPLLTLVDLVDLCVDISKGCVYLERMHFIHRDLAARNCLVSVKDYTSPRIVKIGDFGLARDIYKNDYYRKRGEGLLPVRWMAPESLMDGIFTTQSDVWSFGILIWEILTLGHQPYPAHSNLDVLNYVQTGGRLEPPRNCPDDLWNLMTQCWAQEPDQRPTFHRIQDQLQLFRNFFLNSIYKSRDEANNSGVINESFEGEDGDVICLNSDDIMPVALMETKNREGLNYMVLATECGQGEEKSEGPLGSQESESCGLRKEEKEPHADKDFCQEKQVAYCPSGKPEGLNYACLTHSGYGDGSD
As to the kind of experiment: Ros1 enzymatic assay. As to conditions: Ros1 enzymatic assay; read-out: ROS1 pIC50 (converted). The class given is biochemical. As for the experimental part:
Compounds were spotted onto white 384-well Proxiplate plus plates (Perkin Elmer) to which 5 μl of enzyme mix (0.5 μg/ml Ros1 enzyme, 50 mM Tris-HCl pH7.5, 1 mM EGTA, 10 mM MgCl2, 0.01% Tween-20) and 5 μl of substrate mix (6 μg/ml IRS-Tide [American Peptide Company], 20 μM ATP, 13.33 μCi/ml ATP (adenosine 5′-triphosphate) P^33, 50 mM Tris-HCl pH7.5, 1 mM EGTA (ethylene glycol-bis(2-aminoethylether)-N,N,N′,N′-tetraacetic acid), 10 mM MgCl2, 0.01% Tween-20) were added. After incubation for 120 minutes at room temperature, 10 μl of stop reaction buffer (5 mM EDTA, 50 μM ATP, 0.1% BSA (bovine serum albumin), 0.1% Triton X-100, 50 mM Tris-HCl pH7.5, 1 mM EGTA, 10 mM MgCl2, 0.01% Tween-20) containing 2 mg/ml streptavidin coupled polystyrene imaging beads (Amersham Biosciences) was added and incubated for 15 minutes at room temperature. Plates were centrifuged for 3 minutes at 1500 rpm and signals detected in a LEADseeker imaging system (GE).

Data set [2] addresses Ba/F3 cells containing Ros1 with a mutation at the gatekeeper residue (L2026M) (Homo sapiens, UniProt P08922, L2026M, cells depend on it, form not given). The experiment in a line: Ba/F3-Ros1 cell proliferation assay, L2026M gatekeeper mutant. The class given is cell-based, murine. Particulars: without IL-3. As for the experimental part:
as §1, §2

For data set [3], the system named is Ba/F3 cells containing Ros1 wild-type protein + IL-3. As to the kind of experiment: Ba/F3-Ros1 cell proliferation counter-screen, wild-type protein in the presence of 10 ng/ml murine IL-3. It is filed as cell-based. Particulars: Mus musculus, BaF3, 24 h, read-out: BaF3-ROS1 + IL3 pIC50 (converted). The protocol: as §2
As a counter-screen the same experiment was performed for the wild-type protein in the presence of 10 ng/ml murine IL-3.

Where [4] appears, read: counter-screen, wild-type, 10 ng/ml murine IL-3.

Sequence of Ba/F3 cells containing Ros1 with a mutation at the gatekeeper residue (L2026M) (P08922 whole entry L2026M, form open): as the sequence (P08922 whole entry, stated change not applied) above, with L2026M counted along it

One may read the melting point as the temperature of the solid-liquid transition. The compound `[2H]C([2H])(O)C([2H])([2H])N1CCn2nc(-c3ccncc3)c(-c3ccc(OCc4ccc(C(C)C)cc4)cc3)c2C1=O` [Compound 67] came in with a melting point of 179 °C. Moreover, in data set [1], the “BaF3-ROS1-IL3 pIC50” value is 7.9. Also, at Ros1 enzyme, the IC50 was 0.0251 µM. The “Ba/F3 Ros1 L2026M (-IL-3) pIC50” value in data set [2] was 7.1. In data set [3], the CC50 is greater than 10 µM.
As to `CC(C)c1ccc(COc2ccc(-c3c(-c4ccncc4)nn4c3C(=O)N(C(=O)OC(C)(C)C)CC4)cc2)cc1` [Compound 70], the melting point stood at 147 °C. In data set [1], the “BaF3-ROS1-IL3 pIC50” value is 6.4. Besides, the IC50 on Ros1 enzyme is 3.16 µM. Further, the “Ba/F3 Ros1 L2026M (-IL-3) pIC50” value in data set [2] is given as 6.1. Further, the CC50 in data set [3] (setting [4]) is greater than 10 µM.
`CC(C)c1ccc(COc2ccc(-c3c(-c4ccncc4)nn4c3C(=O)N(CCO)CC4)cc2)cc1CCO` [Compound 83] came in with a melting point of 176 °C. Also, in data set [1], the “BaF3-ROS1-IL3 pIC50” value was 7.6. Further, the IC50 at Ros1 enzyme was 0.02 µM. Moreover, the “Ba/F3 Ros1 L2026M (-IL-3) pIC50” value in data set [2] amounted to 7.2. The CC50 in data set [3] is greater than 10 µM.
On to `CC(C)c1ccc(COc2ccc(-c3c(-c4ccncc4)nn4c3C(=O)N(CCO)CC4)cc2)c(F)c1F` [Compound 100], for which the melting point was found to be 172 °C. The “BaF3-ROS1-IL3 pIC50” value in data set [1] was 6.9. Further, the IC50 on Ros1 enzyme is 0.2 µM. Also, the “Ba/F3 Ros1 L2026M (-IL-3) pIC50” value in data set [2] came out at 6.3. The CC50 in data set [3] was greater than 10 µM.
`CC(C)c1ccc(COc2ccc(-c3c(-c4ccncc4)nn4c3C(=O)N(CC(O)CO)CC4)cc2)c(F)c1F` (stereo not shown) [Compound 101] displayed a melting point of 192 °C. Besides, the “BaF3-ROS1-IL3 pIC50” value in data set [1] is 6.7. Besides, the IC50 on Ros1 enzyme is 0.398 µM. In addition, the “Ba/F3 Ros1 L2026M (-IL-3) pIC50” value in data set [2] is reported as 6.4. For the same compound, the CC50 in data set [3] (setting [4]) is greater than 10 µM.
`CC(C)c1ccc(COc2ccc(-c3c(-c4ccncc4)nn4c3C(=O)N(CC(O)CO)CC4)cc2)c(F)c1F` (stereo not shown) [Compound 102] registered a melting point of 191 °C. In data set [1], the “BaF3-ROS1-IL3 pIC50” value turned out to be 6.7. Besides, the IC50 at Ros1 enzyme was 0.794 µM. In addition, the “Ba/F3 Ros1 L2026M (-IL-3) pIC50” value in data set [2] amounted to 6.4.
As to `O=C1NCCn2nc(-c3ccncc3)c(-c3ccc(OCc4ccc(OC(F)F)cc4)cc3)c21` [Compound 118], the melting point stood at 250 °C. Besides, the “BaF3-ROS1-IL3 pIC50” value in data set [1] amounted to 7.1. Moreover, the IC50 at Ros1 enzyme is 0.158 µM. Besides, the CC50 in data set [3] is greater than 10 µM.
Compound `O=C1NCCn2nc(-c3ccncc3)c(-c3ccc(OCc4cccc(C(F)(F)F)c4)cc3)c21` [Compound 120] had a melting point of 293 °C. The “BaF3-ROS1-IL3 pIC50” value in data set [1] was 6.6. The IC50 on Ros1 enzyme is 0.251 µM. Moreover, in data set [3], the CC50 is greater than 10 µM.
The like results for `N#Cc1cccc(COc2ccc(-c3c(-c4ccncc4)nn4c3C(=O)NCC4)cc2)c1` [Compound 124] were, in that order, 238 °C, 5.7, 2 µM and greater than 10 µM.
For `CC(C)(CO)c1ccc(COc2ccc(-c3c(-c4ccncc4)nn4c3C(=O)NCC4)cc2)cc1` [Compound 125] the same measures were 280 °C, 6.7, 0.316 µM and greater than 10 µM.
For `CC(CO)c1ccc(COc2ccc(-c3c(-c4ccncc4)nn4c3C(=O)NCC4)cc2)cc1` (stereo not shown) [Compound 127] the same measures were 259 °C, 6.6, 0.398 µM and greater than 10 µM.
On to `O=C1NCCn2nc(-c3ccncc3)c(-c3ccc(OCc4ccccc4)cc3)c21` [Compound 130], for which the melting point amounted to 260 °C. Further, in data set [1], the “BaF3-ROS1-IL3 pIC50” value amounted to 5.8. At Ros1 enzyme, the IC50 was 3.16 µM. For the same compound, in data set [3], the CC50 is greater than 10 µM.
`COC(=O)c1cccc(COc2ccc(-c3c(-c4ccncc4)nn4c3C(=O)NCC4)cc2)c1` [Compound 131] returned a melting point of 222 °C. Also, the “BaF3-ROS1-IL3 pIC50” value in data set [1] is listed as 6.2. Further, the IC50 on Ros1 enzyme was 0.631 µM. In data set [3], the CC50 was greater than 10 µM.
The like results for `N#Cc1ccc(COc2ccc(-c3c(-c4ccncc4)nn4c3C(=O)NCC4)cc2)cc1Cl` [Compound 141] were, in that order, 257 °C, 6.4, 0.631 µM and greater than 10 µM.
As for `COc1ccc(COc2ccc(-c3c(-c4ccncn4)nn4c3C(=O)NCC4)cc2)cc1` [Compound 157], the melting point came out at 264 °C. Moreover, in data set [1], the “BaF3-ROS1-IL3 pIC50” value is 6.1. Moreover, the IC50 at Ros1 enzyme was 1 µM. The CC50 in data set [3] is greater than 10 µM.
The compound `O=C1NCCn2nc(-c3ccncn3)c(-c3ccc(OCc4ccc(C5CC5)cc4)cc3)c21` [Compound 166] displayed a melting point of 268 °C. For the same compound, the “BaF3-ROS1-IL3 pIC50” value in data set [1] stood at 6.9. In addition, at Ros1 enzyme, the IC50 was 0.0631 µM. Moreover, the CC50 in data set [3] (setting [4]) was greater than 10 µM.
The like results for `CC(C)c1ccc(COc2ccc(-c3c(-c4cc[n+]([O-])cc4)nn4c3C(=O)NCC4)cc2)cc1` [Compound 170] were, in that order, 227 °C, 5.2, 6.31 µM and greater than 10 µM.
The like results for `CC(C)NC(=O)CN1CCn2nc(-c3ccncc3)c(-c3ccc(OCc4ccc(C(C)C)cc4)cc3)c2C1` [Compound 178] were, in that order, 188 °C, 6.6, 0.2 µM and greater than 10 µM.
Consider `c1cc(-c2nn3c(c2-c2ccc(OCc4ccc(C5CC5)nc4)cc2)CNCC3)ccn1` [Compound 186], for which the melting point is 195 °C. Besides, the “BaF3-ROS1-IL3 pIC50” value in data set [1] stood at 6.2. Moreover, the IC50 on Ros1 enzyme is 1 µM. In data set [3] (setting [4]), the CC50 is greater than 10 µM.
The like results for `CC1CNCc2c(-c3ccc(OCc4ccc(C5CC5)cc4)cc3)c(-c3ccncc3)nn21` (stereo not shown) [Compound 197] were, in that order, 153 °C, 5.8, 0.794 µM and greater than 10 µM.
With `CC(C)c1ccc(COc2ccc(-c3c(-c4ccncc4)nn4c3CN(CCN)CC4)cc2)cc1` [Compound 210], the melting point came out at 197 °C. Also, the “BaF3-ROS1-IL3 pIC50” value in data set [1] is reported as 6.3. At Ros1 enzyme, the IC50 was 0.0631 µM. Further, in data set [3] (setting [4]), the CC50 was 6.31 µM.
`CC(C)c1ccc(COc2ccc(-c3c(-c4ccncn4)nn4c3CNCC4)cc2)cc1` [Compound 219] gave a melting point of 150 °C. In addition, in data set [1], the “BaF3-ROS1-IL3 pIC50” value worked out at 6.0. For the same compound, the IC50 at Ros1 enzyme was 1.26 µM. For the same compound, the CC50 in data set [3] (setting [4]) was greater than 10 µM.
In turn, `CC(C)c1ccc(COc2ccc(-c3c(-c4ncnc5[nH]ccc45)nn4c3C(=O)NCC4)cc2)cc1` [Compound 222] came in with a melting point of 238 °C. For the same compound, the “BaF3-ROS1-IL3 pIC50” value in data set [1] came out at 7.0. Besides, at Ros1 enzyme, the IC50 was 0.2 µM. In addition, the CC50 in data set [3] is greater than 10 µM.
With `COc1ncc(COc2ccc(-c3c(-c4ccncc4)nn4c3C(=O)NCC4)cc2)cn1` [Compound 229], the melting point came to 248 °C. Moreover, the “BaF3-ROS1-IL3 pIC50” value in data set [1] is on record as less than 5. Moreover, the IC50 on Ros1 enzyme is greater than 10 µM. The CC50 in data set [3] (setting [4]) was greater than 10 µM.
Regarding `N#Cc1ncc(COc2ccc(-c3c(-c4ccncc4)nn4c3C(=O)NCC4)cc2)cc1Cl` [Compound 230], the melting point came out at 277 °C. The “BaF3-ROS1-IL3 pIC50” value in data set [1] was 5.2. Besides, the IC50 on Ros1 enzyme is greater than 10 µM. The CC50 in data set [3] (setting [4]) was greater than 10 µM.
In turn, `CC(C)c1ccc(COc2ccc(-c3c(-c4ccncc4)nn4c3CNC(=O)C4)cc2)cc1` [Compound 237] gave a melting point of 281 °C. In data set [1], the “BaF3-ROS1-IL3 pIC50” value is 6.8. The IC50 at Ros1 enzyme is 0.794 µM. For the same compound, the CC50 in data set [3] is greater than 10 µM.
